The structures appear in SMILES notation.

T1 sequence (Q14191 with tags, fused parts or gaps L1074F limits assumed): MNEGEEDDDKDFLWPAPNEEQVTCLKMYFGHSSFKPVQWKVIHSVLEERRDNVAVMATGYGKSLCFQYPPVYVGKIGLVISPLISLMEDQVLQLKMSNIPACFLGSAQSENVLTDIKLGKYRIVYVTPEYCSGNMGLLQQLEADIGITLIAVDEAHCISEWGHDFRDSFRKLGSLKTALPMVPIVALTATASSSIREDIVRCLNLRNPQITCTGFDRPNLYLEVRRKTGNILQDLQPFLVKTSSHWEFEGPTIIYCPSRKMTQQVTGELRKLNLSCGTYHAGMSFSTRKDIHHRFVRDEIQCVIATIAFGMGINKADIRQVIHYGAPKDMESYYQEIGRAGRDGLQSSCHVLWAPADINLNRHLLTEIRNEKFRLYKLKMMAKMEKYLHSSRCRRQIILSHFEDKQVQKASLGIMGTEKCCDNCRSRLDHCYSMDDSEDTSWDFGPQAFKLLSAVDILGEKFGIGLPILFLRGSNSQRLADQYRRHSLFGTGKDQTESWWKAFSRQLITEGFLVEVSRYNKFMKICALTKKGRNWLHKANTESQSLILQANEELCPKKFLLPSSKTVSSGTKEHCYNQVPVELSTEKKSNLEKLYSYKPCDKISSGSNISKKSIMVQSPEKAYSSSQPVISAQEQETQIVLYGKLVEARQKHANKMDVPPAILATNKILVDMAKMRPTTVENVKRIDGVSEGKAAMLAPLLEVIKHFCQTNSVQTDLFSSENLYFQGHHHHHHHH

The test concerns the target T1, human Werner helicase (WRN-BV08, Uniprot Q14191, amino acids 517-1235 with L1074F point mutation) (Homo sapiens, UniProt Q14191, L1074F).
T1 construct: Uniprot Q14191, amino acids 517-1235 with L1074F point mutation; TEV-cleavable 8×His (C, cleaved yes); made in house; host or cells: Sf9 insect cells (baculovirus)
Briefly: WRN (BV08) ADP-Glo Assay. The test is classed as biochemical. Conditions: 0.15 nM WRN, 5 μM ATP, 0.1 nM DNA duplex, 15 min preincubation, 60 min at 25° C., pH 7.5, 1% DMSO; read-out: ADP-Glo_hWRN_IC50. The essentials: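 Untagged WRN (Sf9-expressed, TEV-cleaved) at 0.15 nM was preincubated 15 min at 25 °C with compound, then reacted 60 min at 25 °C with 5 μM ATP and 0.1 nM DNA duplex in Bicine pH 7.5, 1 mM MgCl2. ADP-Glo luminescence gave % inhibition; IC50 by four-parameter fit.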
For orientation: In ADP-Glo the light output rises with the ADP produced.
On to `O=C1Nc2cc(C(F)(F)F)ccc2SC1CC(=O)N(Cc1ccncc1)C1C=CS(=O)(=O)C1` (centres unmarked) [I-231, N-(1,1-dioxo-2,3-dihydro-1lambda6-thiophen-3-yl)-2-[3-oxo-6-(trifluoromethyl)-3,4-dihydro-2H-1,4-benzothiazin-2-yl]-N-[(pyridin-4-yl)methyl]acetamide], for which the IC50 is 5 to 10 µM. Turning to `O=C(Cc1ccc(-n2cccc2)cc1)N(Cc1ccccn1)C1C=CS(=O)(=O)C1` (centres unmarked) [I-467, N-(1,1-dioxo-2,3-dihydro-1lambda6-thiophen-3-yl)-N-[(pyridin-2-yl)methyl]-2-[4-(1H-pyrrol-1-yl)phenyl]acetamide], the IC50 was more than 50 µM. Next, `N#Cc1cc(F)ccc1-c1ccc(CC(=O)N(Cc2ccncc2)C2C=CS(=O)(=O)C2)cc1` (centres unmarked) [I-348, 2-{2′-cyano-4′-fluoro-[1,1′-biphenyl]-4-yl}-N-(1,1-dioxo-2,3-dihydro-1lambda6-thiophen-3-yl)-N-[(pyridin-4-yl)methyl]acetamide]: 10 to 50 µM; `C[Si](C)(C)c1ccc(CC(=O)N(Cc2ccncc2)C2C=CS(=O)(=O)C2)cc1` (centres unmarked) [I-587, N-(1,1-dioxo-2,3-dihydro-1lambda6-thiophen-3-yl)-N-[(pyridin-4-yl)methyl]-2-[4-(trimethylsilyl)phenyl]acetamide]: 10 to 50 µM. The figure for `O=C(Cc1ccc(S(F)(F)(F)(F)F)cc1)N(Cc1ccnc(OC(F)F)c1)C1C=CS(=O)(=O)C1` (centres unmarked) [I-605, N-{[2-(difluoromethoxy)pyridin-4-yl]methyl}-N-(1,1-dioxo-2,3-dihydro-1lambda6-thiophen-3-yl)-2-[4-(pentafluoro-lambda6-sulfanyl)phenyl]acetamide] is 0.5 to 5 µM; for `CC(C(=O)N(Cc1ccnc(C(C)(C)O)c1)[C@@H]1C=CS(=O)(=O)C1)n1cc(-c2cc(F)c(F)c(F)c2)cn1` (single isomer, unassigned) [I-789] it is less than 0.5 µM. The figure for `O=C(Cc1ccc(S(F)(F)(F)(F)F)cc1)N(Cc1ccnc(C2(O)COC2)c1)C1C=CS(=O)(=O)C1` (centres unmarked) [I-633, N-(1,1-dioxo-2,3-dihydro-1lambda6-thiophen-3-yl)-N-{[2-(3-hydroxyoxetan-3-yl)pyridin-4-yl]methyl}-2-[4-(pentafluoro-lambda6-sulfanyl)phenyl]acetamide] is 10 to 50 µM; for `CS(=O)(=O)Nc1cccc(CN(C(=O)Cc2ccc(-n3cccc3)cc2)C2C=CS(=O)(=O)C2)c1` (centres unmarked) [I-344, N-(1,1-dioxo-2,3-dihydro-1lambda6-thiophen-3-yl)-N-[(3-methanesulfonamidophenyl)methyl]-2-[4-(1H-pyrrol-1-yl)phenyl]acetamide] it is 10 to 50 µM; for `COc1ccc2sc(CN(C(=O)Cc3ccc(-n4cccc4)cc3)C3C=CS(=O)(=O)C3)nc2c1` (centres unmarked) [I-102, N-(1,1-dioxo-2,3-dihydro-1lambda6-thiophen-3-yl)-N-[(5-methoxy-1,3-benzothiazol-2-yl)methyl]-2-[4-(1H-pyrrol-1-yl)phenyl]acetamide] it is 0.5 to 5 µM. As to `O=C(Cc1ccc(S(F)(F)(F)(F)F)cc1)N(Cc1ccnnc1)C1C=CS(=O)(=O)C1` (centres unmarked) [I-646, N-(1,1-dioxo-2,3-dihydro-1lambda6-thiophen-3-yl)-2-[4-(pentafluoro-lambda6-sulfanyl)phenyl]-N-[(pyridazin-4-yl)methyl]acetamide], the IC50 lay in the range of 5 to 10 µM. The figure for `CC(C)(O)c1cc(CN(C(=O)Cn2cc(-c3ccc(C(F)F)cc3)cn2)C2C=CS(=O)(=O)C2)ccn1` (single isomer, unassigned) [I-639] is less than 0.5 µM; for `COc1cc(CN(C(=O)C(OC)c2ccc(-c3ccc(F)cc3)cc2F)C2C=CS(=O)(=O)C2)ccn1` (single isomer, unassigned) [I-33, (2R*)-2-{3,4′-difluoro-[1,1′-biphenyl]-4-yl}-N-[(3R**)-1,1-dioxo-2,3-dihydro-1lambda6-thiophen-3-yl]-2-methoxy-N-[(2-methoxypyridin-4-yl)methyl]acetamide] it is less than 0.5 µM. For the molecule `O=C(Cc1ccc(-n2cccc2)cc1)N(Cc1nc(C2CC2)cs1)[C@@H]1C=CS(=O)(=O)C1` [I-83, N-[(4-cyclopropyl-1,3-thiazol-2-yl)methyl]-N-[(3R)-1,1-dioxo-2,3-dihydro-1lambda6-thiophen-3-yl]-2-[4-(1H-pyrrol-1-yl)phenyl]acetamide], the IC50 was less than 0.5 µM.

With `O=C(Cc1ccc(-n2cnnc2)cc1)N(Cc1ccncc1)C1C=CS(=O)(=O)C1` (centres unmarked) [I-532, N-(1,1-dioxo-2,3-dihydro-1lambda6-thiophen-3-yl)-N-[(pyridin-4-yl)methyl]-2-[4-(4H-1,2,4-triazol-4-yl)phenyl]acetamide], the IC50 is more than 50 µM. Next, `Cc1cccc(-c2nc(CC(=O)N(Cc3ccncc3)C3C=CS(=O)(=O)C3)cs2)c1` (centres unmarked) [I-333, N-(1,1-dioxo-2,3-dihydro-1lambda6-thiophen-3-yl)-2-[2-(3-methylphenyl)-1,3-thiazol-4-yl]-N-[(pyridin-4-yl)methyl]acetamide]: more than 50 µM; `O=C(CCc1c[nH]c2cc(Br)ccc12)N(Cc1ccncc1)C1C=CS(=O)(=O)C1` (centres unmarked) [I-304, 3-(6-bromo-1H-indol-3-yl)-N-(1,1-dioxo-2,3-dihydro-1lambda6-thiophen-3-yl)-N-[(pyridin-4-yl)methyl]propanamide]: 10 to 50 µM; `O=C(Cc1ccc(-n2cccc2)cc1)N(Cc1ccccc1)C1C=CS(=O)(=O)C1` (centres unmarked) [I-290, N-benzyl-N-(1,1-dioxo-2,3-dihydro-1lambda6-thiophen-3-yl)-2-[4-(1H-pyrrol-1-yl)phenyl]acetamide]: 5 to 10 µM.

The record behind these values is patent publication US20260297070A1, “CYCLIC [COMPOUND LEFT OUT] WRN INHIBITORS” (Nimbus Wadjet, Inc., priority 2023, published 2026).
